Data from ChEMBL document CHEMBL5518186, “Discovery of the cereblon-recruiting tubulin PROTACs effective in overcoming Taxol resistance in vitro and in vivo” (Eur J Med Chem, 2024).
Active and inactive are the calls of the source. The calls are words filed in the database; no cut-off is given here.

Assays:
[1] = molecular target: T1, Protein cereblon-alpha tubulin (Homo sapiens) (UniProt P0DPH7+P68366+Q71U36+P68363+Q9BQE3+Q6PEY2+A6NHL2+Q9NY65+Q96SW2); assay: Protac activity at CRBN/alpha-tubulin in human HepG2 cells assessed as reduction in alpha-tubulin level at 10 to 1000 nM incubated for 48 hrs by immunoblotting analysis; format: cell-based; details: dose 10-1000 nM
[2] = molecular target: T2, Protein cereblon/Tubulin beta-3 chain (Homo sapiens, UniProt Q13509+Q96SW2); assay: Protac activity at CRBN/beta3-tubulin in human A549 cells assessed as reduction in beta3-tubulin level at 0.25 uM after 72 hrs by immunoblotting analysis; format: cell-based
T2 sequence (Q13509 whole entry, looked up): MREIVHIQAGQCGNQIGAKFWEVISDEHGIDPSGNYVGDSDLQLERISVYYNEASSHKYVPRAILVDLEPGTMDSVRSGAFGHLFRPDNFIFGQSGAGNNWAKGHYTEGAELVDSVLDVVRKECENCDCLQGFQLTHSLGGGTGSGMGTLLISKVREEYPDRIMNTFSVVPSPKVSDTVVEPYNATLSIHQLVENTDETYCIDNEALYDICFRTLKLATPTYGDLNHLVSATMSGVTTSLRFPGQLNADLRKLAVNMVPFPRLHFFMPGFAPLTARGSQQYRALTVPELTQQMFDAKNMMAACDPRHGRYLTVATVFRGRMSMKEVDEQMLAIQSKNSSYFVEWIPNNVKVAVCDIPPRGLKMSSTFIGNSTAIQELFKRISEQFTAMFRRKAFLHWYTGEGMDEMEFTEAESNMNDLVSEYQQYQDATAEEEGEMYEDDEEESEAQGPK
T2 sequence (Q96SW2 whole entry, looked up): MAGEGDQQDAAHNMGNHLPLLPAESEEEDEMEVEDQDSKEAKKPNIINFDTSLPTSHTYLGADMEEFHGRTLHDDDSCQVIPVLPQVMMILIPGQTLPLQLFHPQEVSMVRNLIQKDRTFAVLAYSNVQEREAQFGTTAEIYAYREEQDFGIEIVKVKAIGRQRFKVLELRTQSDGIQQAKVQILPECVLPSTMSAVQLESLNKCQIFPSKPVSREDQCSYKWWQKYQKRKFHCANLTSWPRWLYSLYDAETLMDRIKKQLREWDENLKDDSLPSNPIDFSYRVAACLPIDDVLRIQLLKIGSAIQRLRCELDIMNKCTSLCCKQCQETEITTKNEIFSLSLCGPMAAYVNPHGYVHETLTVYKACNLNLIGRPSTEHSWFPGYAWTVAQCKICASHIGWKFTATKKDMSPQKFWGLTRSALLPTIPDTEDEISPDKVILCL

[3] = tested on: MCF7; assay: Antiproliferative activity against human MCF7 cells incubated for 72 hrs; format: functional, cell-based; details: MCF7, 72 h
[4] = tested on: HepG2; assay: Inhibition of cell migration in human HepG2 cells; format: functional, cell-based
[5] = molecular target: T3, Protein cereblon/Tubulin beta (Homo sapiens) (UniProt P68371+Q9H4B7+Q13509+P04350+Q3ZCM7+P07437+Q13885+Q9BVA1+Q9BUF5+Q96SW2+A6NNZ2); assay: Protac activity at CRBN/beta-tubulin in human MCF7 cells assessed as reduction in beta-tubulin level at 10 to 1000 nM incubated for 48 hrs by immunoblotting analysis; format: cell-based; details: dose 10-1000 nM
[6] = tested on: A549; assay: Induction of apoptosis in human A549 cells assessed as increase in apoptotic rate at 0.05 uM incubated for 48 hrs by Annexin V-FITC/PI staining based flow cytometry analysis (reference value: 1.3%); format: functional
[7] = molecular target: T3, Protein cereblon/Tubulin beta (Homo sapiens); assay: Protac activity at CRBN/beta-tubulin in human A549 cells assessed as reduction in beta-tubulin level at 0.25 uM pretreated with MG-132 followed by compound addition and measured after 24 hrs by immunoblotting analysis; format: cell-based
[8] = tested on: HepG2; assay: Induction of cell cycle arrest in human HepG2 cells assessed as G2/M phase arrest; format: functional, cell-based
[9] = molecular target: T3, Protein cereblon/Tubulin beta (Homo sapiens); assay: Protac activity at CRBN/beta-tubulin in human A549 cells assessed as reduction in beta-tubulin level at 0.25 uM after 48 hrs by immunoblotting analysis; format: cell-based; design: scale not given: the % may be the effect or the level left
[10] = molecular target: T2, Protein cereblon/Tubulin beta-3 chain; assay: Protac activity at CRBN/beta3-tubulin in human A549 cells assessed as reduction in beta3-tubulin level at 0.25 uM pretreated for 48 hrs followed by compound washout and measured after 24 hrs by immunoblotting analysis; format: cell-based
[11] = tested on: HepG2; assay: Inhibition of cell invasion in human HepG2 cells; format: functional, cell-based
[12] = tested on: A549; assay: Inhibition of colony formation in human A549 cells incubated for 24 hrs followed by media replacement at every 3 days for 14 days by crystal violet staining based assay; format: functional, cell-based; details: dose 2-50 nM, time 14.0 day
[13] = molecular target: T3, Protein cereblon/Tubulin beta (Homo sapiens); assay: Protac activity at CRBN/beta-tubulin in human A549 cells assessed as reduction in beta-tubulin level at 0.25 uM pretreated with pomalidomide for 2 hrs followed by compound addition and measured after 24 hrs by immunoblotting analysis; format: cell-based
[14] = molecular target: T3, Protein cereblon/Tubulin beta (Homo sapiens); assay: Protac activity at CRBN/beta-tubulin in human A549 cells assessed as reduction in beta-tubulin level at 0.01 to 1 uM incubated for 48 hrs by immunoblotting analysis; format: cell-based; details: dose 0.01-1 µM
[15] = tested on: HEK-293T; assay: Cytotoxicity against HEK293T cells assessed as effect on cell viability at 20 uM; format: toxicity, cell-based; details: human
[16] = molecular target: T3, Protein cereblon/Tubulin beta (Homo sapiens); assay: Protac activity at CRBN/beta-tubulin in human A549/Taxol cells assessed as reduction in beta-tubulin level at 0.25 uM pretreated with MG-132 followed by compound addition and measured after 48 hrs by immunoblotting analysis; format: cell-based
[17] = tested on: HUVEC; assay: Antiangiogenic activity in HUVECs assessed as reduction in tube length at 2.5 nM incubated for 6 to 8 hrs by inverted microscopic analysis; format: functional, cell-based; details: Homo sapiens, time 6-8 hrs
[18] = molecular target: Protein cereblon-alpha tubulin; assay: (§1) Protac activity at CRBN/alpha-tubulin in human A549 cells assessed as reduction in alpha-tubulin level incubated for 48 hrs by immunoblotting analysis; format: cell-based
[19] = molecular target: T1, Protein cereblon-alpha tubulin (Homo sapiens); assay: as §1; format: cell-based
[20] = tested on: A549; assay: Induction of cell cycle arrest in human A549 cells assessed as accumulation of cells at G0/G1 phase at 0.05 uM incubated for 24 hrs by PI staining based flow cytometry analysis (reference value: 66.75%); format: functional
[21] = tested on: A549; assay: Antitumor activity against human A549 cells xenografted in nude mouse assessed as decrease in tumor volume at 15 mg/kg, ip administered once every 2 days for 23 days by Vernier caliper method; format: functional, organism-based; details: time 23.0 day
[22] = tested on: A549/TR; assay: Antitumor activity against human A549/Taxol cells xenografted in nude mouse assessed as tumor growth inhibition at 15 mg/kg, ip administered once every 2 days for 23 days by Vernier caliper method; format: functional; details: 552 h, time 23 day, read-out: TGI
[23] = tested on: A549; assay: Induction of cell cycle arrest in human A549 cells assessed as accumulation of cells at S phase at 0.01 uM incubated for 24 hrs by PI staining based flow cytometry analysis (reference value: 1.39%); format: functional
[24] = molecular target: T2, Protein cereblon/Tubulin beta-3 chain; assay: Protac activity at CRBN/beta3-tubulin in human HepG2 cells assessed as reduction in beta3-tubulin level at 10 to 1000 nM incubated for 48 hrs by immunoblotting analysis; format: cell-based; details: dose 10-1000 nM
[25] = tested on: A549/TR; assay: Induction of cell cycle arrest in human A549/Taxol cells assessed as accumulation of cells at G2/M phase at 0.002 uM incubated for 24 hrs by PI staining based flow cytometry analysis (reference value: 17.02%); format: functional
[26] = molecular target: Protein cereblon-alpha tubulin; assay: (§2) Protac activity at CRBN/alpha-tubulin in human A549/Taxol cells assessed as reduction in alpha-tubulin level incubated for 48 hrs by immunoblotting analysis; format: cell-based
[27] = molecular target: T1, Protein cereblon-alpha tubulin (Homo sapiens); assay: as §2; format: cell-based
[28] = molecular target: T1, Protein cereblon-alpha tubulin (Homo sapiens); assay: Protac activity at CRBN/alpha-tubulin in human A549 cells assessed as reduction in alpha-tubulin level at 0.25 uM pretreated with pomalidomide for 2 hrs followed by compound addition and measured after 24 hrs by immunoblotting analysis; format: cell-based
[29] = molecular target: T3, Protein cereblon/Tubulin beta (Homo sapiens); assay: Protac activity at CRBN/beta-tubulin in human HeLa cells assessed as reduction in beta-tubulin level at 10 to 1000 nM incubated for 48 hrs by immunoblotting analysis; format: cell-based; details: dose 10-1000 nM
[30] = tested on: A549/TR; assay: Induction of cell cycle arrest in human A549/Taxol cells assessed as accumulation of cells at S phase at 0.002 uM incubated for 24 hrs by PI staining based flow cytometry analysis (reference value: 2.85%); format: functional
[31] = molecular target: T1, Protein cereblon-alpha tubulin (Homo sapiens); assay: Protac activity at CRBN/alpha-tubulin in human A549 cells assessed as reduction in alpha-tubulin level at 0.25 uM pretreated with CA-4 for 2 hrs followed by compound addition and measured after 24 hrs by immunoblotting analysis; format: cell-based
[32] = tested on: HeLa; assay: Antiproliferative activity against human HeLa cells incubated for 72 hrs; format: functional, cell-based
[33] = molecular target: Tubulin (Homo sapiens) (UniProt P68371+Q9H4B7+P0DPH7+P68366+Q13509+Q71U36+P04350+Q3ZCM7+P07437+P68363+Q9BQE3+Q6PEY2+Q13885+Q9BVA1+Q9BUF5); assay: Inhibition of microtubule polymerization in human HepG2 cells by immunofluorescence assay; format: cell-based
[34] = tested on: HepG2; assay: Induction of DNA damage in human HepG2 cells assessed as gamma-H2AX level; format: functional, cell-based
[35] = tested on: A549/TR; assay: Induction of cell cycle arrest in human A549/Taxol cells assessed as accumulation of cells at G0/G1 phase at 0.01 uM incubated for 24 hrs by PI staining based flow cytometry analysis (reference value: 77.86%); format: functional

For `COc1ccc(/C=C\c2cc(OC)c(OC)c(OC)c2)cc1OC(=O)CCCNc1cccc2c1C(=O)N(C1CCC(=O)NC1=O)C2=O` (stereo not given), the Activity [1] was “Active”, the Activity [2] was “inactive” and the IC50 [3] was 0.012 µM. For the same molecule, the inhibition [4] was “Dose-Dependent Effect”, the Activity [5] was “Active” and the Activity [6] was 48.2%. The Activity [7] was “inactive”, the Activity [8] was “Active” and the Activity [9] was 31.1%. For the same molecule, the Activity [10] was “inactive”, the inhibition [11] was “Dose-Dependent Effect” and the inhibition [12] was “Dose-Dependent Effect”. The Activity [13] was “inactive”, the Activity [14] was “Active” and the Activity [15] was “Non-Toxic”. For the same molecule, the Activity [16] was “inactive”, the Activity [17] was “Active” and the DC50 [18] was 0.296 µM. The Activity [19] was “Dose-Dependent Effect”, the Activity [20] was 10.15% and the Activity [21] was “Active”. The inhibition in vivo at 15 mg/kg [22] was 65.8%, the Activity [23] was 15.35% and the Activity [24] was “Active”. For the same molecule, the Activity [25] was 23.69%, the DC50 [26] was 0.032 µM and the Activity [27] was “Dose-Dependent Effect”. The Activity [28] was “inactive”, the Activity [29] was “Active” and the Activity [30] was 7.68%. For the same molecule, the Activity [31] was “inactive”, the IC50 [32] was 0.021 µM and the inhibition [33] was “Active”. For the same molecule, the Activity [34] was “Active” and the Activity [35] was 26.79%.
